Reference: ChEMBL document CHEMBL5537151, “Design, synthesis and bioactivity evaluation of novel fusion peptides and their CPT conjugates inducing effective anti-tumor responses on HER2 positive tumors” (Eur J Med Chem, 2024)
Peptide text beside a SMILES is read from it. * marks the point of attachment. X7 = CCC1(OC(=O)CCCCCN2C(=O)CC(SC[C@H](N)C(=O)*)C2=O)C(=O)OCc2c1cc1n(c2=O)Cc2cc3ccccc3nc2-1; X3 = CCC1(OC(=O)CCSSC[C@H](N)C(=O)*)C(=O)OCc2c1cc1n(c2=O)Cc2cc3ccccc3nc2-1; X6 = CCC1(OC(=O)OCCS*)C(=O)OCc2c1cc1n(c2=O)Cc2cc3ccccc3nc2-1

What was measured:
[1] = Cytotoxicity against HER-negative human MCF-10A cells incubated for 48 hrs by CCK-8 assay; type: toxicity, cell-based
SK-BR-3 [2] = test: cells; settings: Homo sapiens, SK-BR-3, 48 h
Description: Cytotoxicity against HER-positive human SK-BR-3 cells incubated for 48 hrs by CCK-8 assay

NCI-N87 = test: cells; settings: Homo sapiens, NCI-N87, 48 h
Description: Cytotoxicity against HER-positive human NCI-N87 cells incubated for 48 hrs by CCK-8 assay

SK-OV-3 = test: cells; settings: Homo sapiens, SK-OV-3, 48 h
Description: Cytotoxicity against HER-positive human SK-OV-3 cells incubated for 48 hrs by CCK-8 assay

MDA-MB-231 = test: cells; settings: Homo sapiens, MDA-MB-231, 48 h
Description: Cytotoxicity against HER-negative human MDA-MB-231 cells incubated for 48 hrs by CCK-8 assay

SK-BR-3 [3] = test: Induction of apoptosis in human SK-BR-3 cells assessed as live cells at 1 uM incubated for 24 hrs by Annexin V-FITC/PI staining based flow cytometry analysis (reference value: 94.6%); type: functional
SK-BR-3 [4] = test: Induction of apoptosis in human SK-BR-3 cells assessed as early apoptotic cells at 1 uM incubated for 24 hrs by Annexin V-FITC/PI staining based flow cytometry analysis (reference value: 2.80%); type: functional
SK-BR-3 [5] = test: Induction of apoptosis in human SK-BR-3 cells assessed as late apoptotic cells at 1 uM incubated for 24 hrs by Annexin V-FITC/PI staining based flow cytometry analysis (reference value: 1.11%); type: functional
SK-BR-3 [6] = test: Induction of apoptosis in human SK-BR-3 cells assessed as necrotic cells at 1 uM incubated for 24 hrs by Annexin V-FITC/PI staining based flow cytometry analysis (reference value: 1.49%); type: functional
[7] = Toxicity in nude mouse xenografted with human SK-BR-3 cells assessed as increase in ALT level at 8 umol/kg, iv administered every 3 days for 14 days; type: organism-based; settings: in vivo, 336 h, dose 8 µmol/kg, time 14 day
[8] = Toxicity in nude mouse xenografted with human SK-BR-3 cells assessed as increase in AST level at 8 umol/kg, iv administered every 3 days for 14 days; type: organism-based; settings: in vivo, 336 h, dose 8 µmol/kg, time 14 day
[9] = Toxicity in nude mouse xenografted with human SK-BR-3 cells assessed as change in alkaline phosphatase level at 8 umol/kg, iv administered every 3 days for 14 days; type: organism-based; settings: in vivo, 336 h, dose 8 µmol/kg, time 14 day
[10] = Toxicity in nude mouse xenografted with human SK-BR-3 cells assessed as change in total protein level at 8 umol/kg, iv administered every 3 days for 14 days; type: organism-based; settings: in vivo, 336 h, dose 8 µmol/kg, time 14 day
[11] = Toxicity in nude mouse xenografted with human SK-BR-3 cells assessed as change in albumin level at 8 umol/kg, iv administered every 3 days for 14 days; type: organism-based; settings: in vivo, 336 h, dose 8 µmol/kg, time 14 day
[12] = Toxicity in nude mouse xenografted with human SK-BR-3 cells assessed as change in globulin level at 8 umol/kg, iv administered every 3 days for 14 days; type: organism-based; settings: in vivo, 336 h, dose 8 µmol/kg, time 14 day

Row | IC50 (SK-BR-3 [2]) [µM] | IC50 (NCI-N87) [µM] | IC50 (SK-OV-3) [µM] | IC50 (MDA-MB-231) [µM] | Compound | IC50 at 48 h [1] [µM] | Activity (SK-BR-3 [3]) [%] | Activity (SK-BR-3 [4]) [%] | Activity (SK-BR-3 [5]) [%] | Activity (SK-BR-3 [6]) [%] | Activity [7] | Activity [8] | Activity [9] | Activity [10] | Activity [11] | Activity [12]
1 | 12.6 | 24.2 | > 50 | 31.4 | CC[C@H](C)[C@H](NC(=O)[C@@H]1CCCN1C(=O)[C@@H](NC(=O)[C@H](C)N)C(C)C)C(=O)N[C@@H](C)C(=O)N[C@@H](CCC(N)=O)C(=O)N[C@@H](CCCCN)C(=O)NCC(=O)N[C@@H](Cc1ccccc1)C(=O)N[C@@H](CC(C)C)C(=O)NCC(=O)N[C@@H](CC(N)=O)C(=O)N1CCC[C@H]1C(=O)N[C@@H](CC(N)=O)C(=O)N[C@@H](Cc1c[nH]c2ccccc12)C(=O)NCC(=O)N[C@@H](CCCNC(=N)N)C(=O)N[C@@H](CO)C(=O)N[C@@H](Cc1c[nH]c2ccccc12)C(=O)N[C@@H](Cc1ccc(O)cc1)C(=O)N[C@@H](CC(N)=O)C(=O)N[C@@H](CCC(N)=O)C(=O)N[C@@H](CCCNC(=N)N)C(=O)N[C@@H](Cc1ccccc1)C(=O)N[C@@H](CCCCNC(=O)[C@@H](N)CSC1CC(=O)N(CCCCCC(=O)OC2(CC)C(=O)OCc3c2cc2n(c3=O)Cc3cc4ccccc4nc3-2)C1=O)C(N)=O (stereo not given in full) (H-AVPIAQKGFLGNPNWGRSWYNQRFK(X7)-NH2) | > 50 |  |  |  |  |  |  |  |  |  | 
2 | 2.3 | 8.01 | 4.73 | 15.1 | CC[C@H](C)[C@H](NC(=O)[C@@H]1CCCN1C(=O)[C@@H](NC(=O)[C@H](C)N)C(C)C)C(=O)N[C@@H](C)C(=O)N[C@@H](CCC(N)=O)C(=O)N[C@@H](CCCCN)C(=O)NCC(=O)N[C@@H](Cc1ccccc1)C(=O)N[C@@H](CC(C)C)C(=O)NCC(=O)N[C@@H](CC(N)=O)C(=O)N1CCC[C@H]1C(=O)N[C@@H](CC(N)=O)C(=O)N[C@@H](Cc1c[nH]c2ccccc12)C(=O)NCC(=O)N[C@@H](CCCNC(=N)N)C(=O)N[C@@H](CO)C(=O)N[C@@H](Cc1c[nH]c2ccccc12)C(=O)N[C@@H](Cc1ccc(O)cc1)C(=O)N[C@@H](CC(N)=O)C(=O)N[C@@H](CCC(N)=O)C(=O)N[C@@H](CCCNC(=N)N)C(=O)N[C@@H](Cc1ccccc1)C(=O)N[C@@H](CCCCNC(=O)[C@@H](N)CSSCCC(=O)OC1(CC)C(=O)OCc2c1cc1n(c2=O)Cc2cc3ccccc3nc2-1)C(N)=O (stereo not given in full) (H-AVPIAQKGFLGNPNWGRSWYNQRFK(X3)-NH2) | 28.4 |  |  |  |  |  |  |  |  |  | 
3 | 0.85 | 3.04 | 4.03 | 6.43 | CC[C@H](C)[C@H](NC(=O)[C@@H]1CCCN1C(=O)[C@@H](NC(=O)[C@H](C)N)C(C)C)C(=O)N[C@@H](C)C(=O)N[C@@H](CCC(N)=O)C(=O)N[C@@H](CCCCN)C(=O)NCC(=O)N[C@@H](Cc1ccccc1)C(=O)N[C@@H](CC(C)C)C(=O)NCC(=O)N[C@@H](CSSCCOC(=O)OC1(CC)C(=O)OCc2c1cc1n(c2=O)Cc2cc3ccccc3nc2-1)C(=O)N[C@@H](CC(N)=O)C(=O)N1CCC[C@H]1C(=O)N[C@@H](CC(N)=O)C(=O)N[C@@H](Cc1c[nH]c2ccccc12)C(=O)NCC(=O)N[C@@H](CCCNC(=N)N)C(=O)N[C@@H](CO)C(=O)N[C@@H](Cc1c[nH]c2ccccc12)C(=O)N[C@@H](Cc1ccc(O)cc1)C(=O)N[C@@H](CC(N)=O)C(=O)N[C@@H](CCC(N)=O)C(=O)N[C@@H](CCCNC(=N)N)C(=O)N[C@@H](Cc1ccccc1)C(=O)N[C@@H](CCCCN)C(N)=O (stereo not given in full) (H-AVPIAQKGFLGC(X6)NPNWGRSWYNQRFK-NH2) | 18.2 |  |  |  |  |  |  |  |  |  | 

Row | Compound | IC50 (SK-BR-3 [2]) [µM] | IC50 (NCI-N87) [µM] | IC50 (SK-OV-3) [µM] | IC50 (MDA-MB-231) [µM] | IC50 at 48 h [1] [µM] | Activity (SK-BR-3 [3]) [%] | Activity (SK-BR-3 [4]) [%] | Activity (SK-BR-3 [5]) [%] | Activity (SK-BR-3 [6]) [%] | Activity [7] | Activity [8] | Activity [9] | Activity [10] | Activity [11] | Activity [12]
4 | CC[C@@]1(O)C(=O)OCc2c1cc1n(c2=O)Cc2cc3ccccc3nc2-1 [CAMPTOTHECIN] | 0.38 | 2.07 | 4.07 | 0.53 | 3.02 | 54.9 | 27.3 | 16.9 | 0.94 | Toxic | Toxic | Non-Toxic | Non-Toxic | Non-Toxic | Non-Toxic
